Reference: patent US20120202287A1, “Stem Cell Culture Methods” (priority 2009, published 2012)

Legend:
SA121 hESCs = test: General (monolayer) differentiation on matrigel in defined media, qRT-PCR of stem cell and differentiation markers after 14 days; assay type: cell-based, human; design: key to NO EHNA EFFECT: X: NO EHNA EFFECT; key to Full EHNA effect: those which maintained at least 50% of the level of NANOG-expression in comparison to EHNA and those that inhibited the expression of PAX6 to 50% or less than the value untreated controls were considered to have an EHNA-like effect; details: for NO EHNA EFFECT / PARTIAL EHNA EFFECT (PAX6) / Full EHNA effect: 10 uM; for NO EHNA EFFECT: neither NANOG nor PAX6 criterion met; for PARTIAL EHNA EFFECT (PAX6): only PAX6 50% or less of untreated control; for Full EHNA effect: NANOG at least 50% of EHNA level and PAX6 50% or less of untreated control
Method: In order to ascertain the efficacy of the compounds of the present invention, each compound was tested to determine whether it can maintain the stem cell marker NANOG and/or block the differentiation marker PAX6 in the face of differentiating conditions in a manner similar to EHNA. Cells enzymatically passaged onto matrigel-coated dishes and grown for 2 weeks in defined media with or without (control) compound addition were analysed by qRT-PCR to determine the level of NANOG and PAX6 expression.
For general differentiation experiments cells were passaged with trypsin onto matrigel coated twelve-well dishes in the fully supportive media (see above). The media was then changed to defined media 24 h later and any experimental component was first added at this point. The media and experimental supplement were changed daily.
Cells were routinely harvested for qRT-PCR analysis 14 days after the first addition of the experimental compound.
Total RNA was extracted using QIAGEN RNeasy kits (Qiagen Inc, Valencia, Calif., http://www.qiagen.com) and DNaseI treatment was performed using Turbo DNA-Free (Ambion). The absence of genomic DNA was confirmed by quantitative PCR (qPCR) (see below) using glyceraldehyde-3-phosphate dehydrogenase (GAPDH) Taqman primers and probe (MWG). cDNA was synthesized with 2 μg total RNA in 20 μl using Superscript II according to manufacturers' instructions ((Carlsbad, Calif., http://www.Invitrogen.com)). For qPCR, cDNAs were diluted 1 in 60 and 5 μl used per sample in a 15 μl total reaction volume. Platinum pPCR supermix UDG with Rox (Carlsbad, Calif., http://www.Invitrogen.com) was used according to the manufacturer's instructions using an Applied Biosystems 7300 real time PCR system (Applied Biosystems, Warrington, UK, http://europe.appliedbiosystems.com). Each reaction contained 0.6 μM of each primer and Taqman probe (MWG). Biological and technical replicates were each performed in triplicate for each sample, standardised to the GAPDH housekeeping gene and relative expression values were calculated using the 7300 system SDS software (Applied Biosystems, Warrington, UK, http://europe.appliedbiosystems.com).
Cells were enzymatically passaged onto matrigel-coated dishes and grown for 2 weeks in defined media. After 14 days, qRT-PCR was utilised to analyse the expression of a variety of markers of pluripotency and differentiation. In the graphs in FIG. 9 the value 1 was set to the expression level of the gene in undifferentiated SA121 hESCs.
Cells were enzymatically passaged onto matrigel-coated dishes and grown for 2 weeks in defined media (1× confluent T25 tissue culture flask was passaged to 2×12 well dishes) with or without (control) compound addition. All compounds were added at 10 uM and each was performed in triplicate. Media and compounds were changed every 48 hours. After 14 days RNA was isolated and qRT-PCR was utilised to analyse the expression of NANOG and PAX6. The results are illustrated in FIGS. 13 to 17.
In the graphs in FIGS. 13, 14 15, 16 and 17 the value 1 was set relative to the expression level of the gene in the control (no compound) samples. […] This experiment allowed the effect of the EHNA-related compounds to be measured directly in comparison to EHNA. […] Those which had on effect, to these levels, on either PAX6 or NANOG were considered to have a partial-EHNA effect.

[1] = Solubility in 5% DMSO-water; assay type: physicochemical

Row | Compound | NO EHNA EFFECT (SA121 hESCs; 14 days, qRT-PCR) | PARTIAL EHNA EFFECT (PAX6) (SA121 hESCs; 14 days, qRT-PCR) | also measured
1 | CCCCCCC(C(C)O)n1cnc2c(O)ncnc21.Cl (stereo not drawn) [HWC14, erythro-9-(2-hydroxynonan-3-yl)-9H-purin-6-ol hydrochloride] | X | – | –
2 | CCCCCC[C@@H]([C@@H](C)O)n1cnc2c(OC)ncnc21 [HWC53, (2R,3S)-3-(6-methoxy-9H-purin-9-yl)nonan-2-ol] | X | – | –
3 | CCCCCCC(C(C)O)n1cnc2c(NN)ncnc21 (stereo not drawn) [HWC27, erythro-3-(6-hydrazinyl-9H-purin-9-yl)nonan-2-ol] | – | X (Those which had on effect, to these levels, on either PAX6 or NANOG were considered to have a partial-EHNA effect) | –
4 | CCC[C@H](O)[C@@H](C)n1cnc2c(N)ncnc21 [HWC61, (2R,3S)-2-(6-amino-9H-purin-9-yl)hexan-3-ol] | X | – | –
5 | CCCCCCC(C(C)O)n1cnc2c(SC)ncnc21 (stereo not drawn) [HWC25, erythro-3-[6-(methylthio)-9H-purin-9-yl]nonan-2-ol] | – | – | Full EHNA effect (SA121 hESCs; 14 days, qRT-PCR): X
6 | Nc1ncnc2c1cnn2CCN1CCOCC1 [HWC28, 1-(2-morpholinoethyl)-1H-pyrazolo[3,4-d]pyrimidin-4-amine] | – | X (Those which had on effect, to these levels, on either PAX6 or NANOG were considered to have a partial-EHNA effect) | –
7 | CCCCCC(CC)n1cnc2c(N)ncnc21 (racemic) [HWC62, (rac)-9-(octan-3-yl)-9H-purin-6-amine] | – | – | Full EHNA effect (SA121 hESCs; 14 days, qRT-PCR): X
8 | COCCOCCn1cc2c(N)ncnc2n1 [HWC35, 2-[2-(2-methoxyethoxy)ethyl]-2H-pyrazolo[3,4-d]pyrimidin-4-amine] | – | X (Those which had on effect, to these levels, on either PAX6 or NANOG were considered to have a partial-EHNA effect) | –
9 | CCCCCC[C@@H]([C@@H](C)O)n1cnc2cncnc21 [HWC12, erythro-3-(9H-purin-9-yl)nonan-2-ol] | – | X (Those which had on effect, to these levels, on either PAX6 or NANOG were considered to have a partial-EHNA effect) | –
10 | CCCCCCCCCCn1cc2c(N)ncnc2n1 [HWC-3, 2-decyl-2H-pyrazolo[3,4-d]pyrimidin-4-amine] | – | – | solubility in 5% DMSO-water [1]: poor solubility
11 | CCCCCCC(C(C)O)n1cnc2c(S)ncnc21.Cl (stereo not drawn) [HWC13, erythro-3-(6-mercapto-9H-purin-9-yl)nonan-2-ol hydrochloride] | – | X (Those which had on effect, to these levels, on either PAX6 or NANOG were considered to have a partial-EHNA effect) | –
12 | Nc1ncnc2nn(CCN3CCOCC3)cc12 [HWC29, 2-(2-morpholinoethyl)-2H-pyrazolo[3,4-d]pyrimidin-4-amine] | – | X (Those which had on effect, to these levels, on either PAX6 or NANOG were considered to have a partial-EHNA effect) | –
13 | CCCCCC[C@@H]([C@@H](C)O)n1cnc2c(OC)ncnc21.Cl [HWC15, erythro-3-(6-methoxy-9H-purin-9-yl)nonan-2-ol hydrochloride] | X | – | –
14 | CCCCCCC(C(C)O)n1c(C)nc2c(N)ncnc21.Cl (stereo not drawn) [HWC24, erythro-3-(6-Amino-8-methyl-9H-purin-9-yl)nonan-2-ol hydrochloride] | – | X (Those which had on effect, to these levels, on either PAX6 or NANOG were considered to have a partial-EHNA effect) | –
15 | CCC[C@H]([C@H](C)O)n1cnc2c(N)ncnc21 [HWC60, (2S,3R)-3-(6-Amino-9H-purin-9-yl)hexan-2-ol] | X | – | –
16 | C[C@H]([C@@H](O)CCc1ccccc1)n1cnc2c(N)ncnc21.Cl [HWC42, (3S,4R)-4-(6-amino-9H-purin-9-yl)-1-phenylpentan-3-ol hydrochloride] | – | X (Those which had on effect, to these levels, on either PAX6 or NANOG were considered to have a partial-EHNA effect) | –
17 | CCCCCCC(C(C)O)n1nnc2cnccc21 (racemic) [HWC54, (rac)-erythro-3-(1H-[1,2,3]triazolo[4,5-c]pyridin-1-yl)nonan-2-ol] | X | – | –
18 | CCCCCCCCCCn1cnc2c(N)ncnc21 [HWC64, 9-(decan-1-yl)-9H-purin-6-amine] | – | – | Full EHNA effect (SA121 hESCs; 14 days, qRT-PCR): X
19 | CCCCCCC(C(C)O)n1cnc2cccnc21.Cl (stereo not drawn) [HWC-5, 3-(3H-imidazo[4,5-b]pyridin-3-yl)nonan-2-ol hydrochloride] | – | – | prevention of differentiation of hESCs (SA121 hESCs; FIG. 10): can prevent differentiation of hESCs; PAX6 expression in differentiating conditions (SA121 hESCs; qRT-PCR, 14 days): inhibiting PAX6 expression; NANOG expression in differentiating conditions (SA121 hESCs; qRT-PCR, 14 days, relative to untreated control): capable of maintaining NANOG
